Data: patent EP4768487A1, “FUSED LACTAM RING COMPOUND AND USE THEREOF” (Chengdu Zenitar Biomedical Technology Co., Ltd., priority 2023, dated 2025)

Columns and labels:
[1] = target: T1, PARP1 (Homo sapiens, UniProt P09874); test: PARP1 enzyme assay (histone-coated plate, chemiluminescence); type: biochemical; conditions: PARP1 0.02 nM, DNA 0.8 nM, NAD+ 3.5 µM; read-out: PARP-1 IC50
T1 construct: purchased BPS 80501
Procedure: 1.1.1. Buffer preparation: PBST: 1× PBS, 0.05% Tween-20; blocking buffer: 1× PBS, 0.05% Tween-20, 5% BSA; reaction buffer: 50 mM Tris-HCl (pH 7.5), 0.005% Tween-20, 0.01% BSA.
1.1.2. Coating: A 50 ng/mL Histone coating solution was prepared with 1× PBS and then transferred to a 384-well reaction plate at 25 µL/well. The plate was coated at 4 °C overnight.
1.1.3. Washing: After the coating was completed, the coating solution was discarded, and the plate was washed with the PBST solution. The method was as follows: PBST was transferred to the 384-well reaction plate at 50 µL/well, and the plate was left to stand for 5 min. The washing solution was then discarded, and the plate was refilled. The washing step was repeated 3 times. Finally, the reaction plate was patted dry and left for the next step of blocking.
1.1.4. Blocking: The blocking buffer was transferred to the 384-well reaction plate at 50 µL/well, and the plate was left to stand for 1 h.
Washing: After the blocking was completed, the blocking buffer was discarded, and the plate was washed 3 times with the PBST solution according to the method in step 2. Finally, the reaction plate was patted dry.
1.1.5. A 1000-fold solution of a compound was prepared and then transferred at 1 µL/well to a 96-well plate containing 199 µL of the reaction buffer. The mixture was well mixed, and then the well mixed compound solution was transferred to the 384-well reaction plate at 5 µL/well. 1.1.6. A 25/10-fold PARP1-DNA solution was prepared with the reaction buffer and then transferred to the 384-well reaction plate at 10 µL/well. For the negative control wells, 10 µL
of the DNA solution was transferred. The final concentrations of PARP1 and DNA were 0.02 nM and 0.8 nM, respectively.
1.1.9. Washing: After the reaction was completed, the reaction solution was discarded, and the plate was washed 3 times with the PBST solution according to the method in step 2. Finally, the reaction plate was patted dry.
1.1.10. A primary antibody (anti-Poly/Mono-ADP Ribose Rabbit mAb) was diluted 2000-fold with the blocking buffer and then added at 20 µL/well.
1.1.11. Washing: The primary antibody was discarded, and the plate was washed 3 times with the PBST solution according to the method in step 2. Finally, the reaction plate was patted dry.
1.1.12. A secondary antibody (anti-rabbit IgG, HRP-linked Antibody) was diluted 2000-fold with the blocking buffer and then added at 20 µL/well.
1.1.13. Washing: The secondary antibody was discarded, and the plate was washed 3 times with the PBST solution according to the method in step 2. Finally, the reaction plate was patted dry.
1.1.14. Color development: Femto-ECL Substrate A and Femto-ECL Substrate B were mixed at a ratio of 1:1, and the mixture was transferred to the 384-well reaction plate at 25 µL/well. 1.1.15. Reading: The chemiluminescence values (RLU) were measured using Envision.

[2] = system: BRCA-mutated MDA-MB-436 cells; test: Anti-proliferative activity against cells (CCK8): MDA-MB-436; type: cell-based; conditions: Homo sapiens, 72 h + 96 h culture
[3] = system: BRCA wild-type DLD-1 cells; test: Anti-proliferative activity against cells (CCK8): DLD-1; type: cell-based; conditions: Homo sapiens, 72 h + 96 h culture
Procedure: BRCA wild-type DLD-1 cells were cultured in an RPMI-1640 medium containing 10% fetal bovine serum, 100 U/mL penicillin, and 100 µg/mL streptomycin, and incubated in an incubator with 5% saturated CO2 at 37 °C. When the cells grew to 80% confluence, they were collected, centrifuged at 300 g for 10 min, and then plated onto a 96-well plate at 1000 cells/well. After 24 h, different final concentrations (0 µM, 1 µM, and 10 µM) of PARPi were added, and the cells were cultured for another 72 h. The cells were subjected to medium exchange treatment (re-supplemented with PARPi at the same final concentrations) and then cultured for another 96 h. The 96-well plate was taken out.

T1 sequence (P09874 whole entry): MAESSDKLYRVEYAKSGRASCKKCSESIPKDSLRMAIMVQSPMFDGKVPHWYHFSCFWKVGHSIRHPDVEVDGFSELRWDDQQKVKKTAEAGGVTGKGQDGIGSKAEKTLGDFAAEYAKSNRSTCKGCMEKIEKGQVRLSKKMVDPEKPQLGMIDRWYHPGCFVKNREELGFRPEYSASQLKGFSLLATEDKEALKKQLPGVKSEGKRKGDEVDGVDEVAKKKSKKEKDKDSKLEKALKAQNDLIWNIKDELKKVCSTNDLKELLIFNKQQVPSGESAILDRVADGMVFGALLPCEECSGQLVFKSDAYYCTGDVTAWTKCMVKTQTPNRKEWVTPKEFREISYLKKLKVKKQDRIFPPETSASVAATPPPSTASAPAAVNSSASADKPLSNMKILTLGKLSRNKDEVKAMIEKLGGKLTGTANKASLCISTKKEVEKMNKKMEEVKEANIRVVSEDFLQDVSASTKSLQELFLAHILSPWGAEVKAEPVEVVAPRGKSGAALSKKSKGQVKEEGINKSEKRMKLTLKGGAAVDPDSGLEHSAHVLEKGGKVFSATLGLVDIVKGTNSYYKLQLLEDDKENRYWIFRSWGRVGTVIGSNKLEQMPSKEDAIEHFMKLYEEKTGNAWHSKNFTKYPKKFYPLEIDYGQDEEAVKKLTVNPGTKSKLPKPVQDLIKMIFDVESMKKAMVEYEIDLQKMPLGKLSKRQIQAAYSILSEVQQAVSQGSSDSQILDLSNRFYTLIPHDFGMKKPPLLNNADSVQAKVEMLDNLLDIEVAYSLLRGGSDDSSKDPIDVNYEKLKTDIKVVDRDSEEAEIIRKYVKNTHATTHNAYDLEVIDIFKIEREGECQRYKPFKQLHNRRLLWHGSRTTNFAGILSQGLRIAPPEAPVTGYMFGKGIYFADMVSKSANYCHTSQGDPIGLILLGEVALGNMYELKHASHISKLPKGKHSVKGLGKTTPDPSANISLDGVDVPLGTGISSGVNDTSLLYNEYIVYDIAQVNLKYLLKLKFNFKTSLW

| IC50 [1] | IC50 [2] | IC50 [3] | SMILES |
| --- | --- | --- | --- |
| 0.05 to 0.5 µM | 0.25 µM | > 1 µM | CCc1nc2c([nH]c1=O)C[C@@H](CN1CCC(c3ccc(C(=O)NC)nc3F)CC1)CC2 [Example 54, (S)-5-(1-((2-Ethyl-3-oxo-3,4,5,6,7,8-hexahydroquinoxalin-6-yl)methyl)piperidin-4-yl)-6-fluor o-N-methylpicolinamide] |
| ≤ 0.05 µM | 0.14 µM | > 1 µM | CNC(=O)c1ccc(N2CCN(C[C@H]3CCc4nc(C5CC5)c(=O)[nH]c4C3)CC2)cn1 [Example 58, (S)-5-(4-((2-Cyclopropyl-3-oxo-3,4,5,6,7,8-hexahydroquinoxalin-6-yl)methyl)piperazin-1-yl) -N-methylpicolinamide] |
| 0.05 to 0.5 µM | 0.3 µM | > 1 µM | CNC(=O)c1ccc(C2CCN(CC3Cc4[nH]c(=O)c(C)cc4CO3)CC2)c(F)n1 (stereo not drawn) [Example 59, 6-Fluoro-N-methyl-5-(1-((3-methyl-2-oxo-1,5,7,8-tetrahydro-2H-pyrano[4,3-b]pyridin-7-yl)methyl)piperidin-4-yl)picolinamide] |
| 0.05 to 0.5 µM | 0.12 µM | > 1 µM | CCc1cc2c([nH]c1=O)CC(CN1CCC(c3ccc(C(=O)NC)nc3F)CC1)OC2 (stereo not drawn) [Example 60, 5-(1-((3-Ethyl-2-oxo-1,5,7,8-tetrahydro-2H-pyrano[4,3-b]pyridin-7-yl)methyl)piperidin-4-yl)-6-fluoro-N-methylpicolinamide] |
| 0.05 to 0.5 µM | 0.36 µM | > 1 µM | CNC(=O)c1ccc(C2CCN(CC3Cc4[nH]c(=O)c(C5CC5)cc4CO3)CC2)c(F)n1 (stereo not drawn) [Example 61, 5-(1-((3-Cyclopropyl-2-oxo-1,5,7,8-tetrahydro-2H-pyrano[4,3-b]pyridin-7-yl)methyl)piperidin-4-yl)-6-fluoro-N-methylpicolinamide] |
| 0.05 to 0.5 µM | 0.015 µM | > 1 µM | CNC(=O)c1ccc(N2CCN(CC3Cc4[nH]c(=O)c(C5CC5)cc4CO3)CC2)c(Cl)n1 (stereo not drawn) [Example 73, 6-Chloro-5-(4-((3-cyclopropyl-2-oxo-1,5,7,8-tetrahydro-2H-pyrano[4,3-b]pyridin-7-yl)methyl)piperazin-1-yl)-N-methylpicolinamide] |
| ≤ 0.05 µM | 0.0096 µM | > 1 µM | CNC(=O)c1ccc(N2CCN(CC3Cc4[nH]c(=O)c(C)cc4CO3)CC2)c(C#N)n1 (stereo not drawn) [Example 76, 6-Cyano-N-methyl-5-(4-((3-methyl-2-oxo-1,5,7,8-tetrahydro-2H-pyrano[4,3-b]pyridin-7-yl)methyl)piperazin-1-yl)picolinamide] |
| ≤ 0.05 µM | 0.0028 µM | > 1 µM | CCc1cc2c([nH]c1=O)CC(CN1CCN(c3ccc(C(=O)Nc4cnn(C)c4)nc3F)CC1)OC2 (stereo not drawn) [Example 78, 5-(4-((3-Ethyl-2-oxo-1,5,7,8-tetrahydro-2H-pyrano[4,3-b]pyridin-7-yl)methyl)piperazin-1-yl) -6-fluoro-N-(1-methyl-1H-pyrazol-4-yl)picolinamide] |
| ≤ 0.05 µM | 0.0065 µM | > 1 µM | [2H]C([2H])([C@H]1CCc2nc(C)c(=O)[nH]c2C1)N1CCN(c2ccc(C(=O)NC3CC3)nc2F)CC1 [Example 88, (S)-N-Cyclopropyl-6-fluoro-5-(4-((2-methyl-3-oxo-3,4,5,6,7,8-hexahydroquinoxalin-6-yl)methyl-d2)piperazin-1-yl)picolinamide] |
| ≤ 0.05 µM | 0.0105 µM | > 1 µM | CNC(=O)c1ccc(N2CCN(C[C@H]3Cc4[nH]c(=O)c(C)cc4CO3)CC2)c(Cl)n1 [Example 95, (R)-6-chloro-N-methyl-5-(4-((3-methyl-2-oxo-1,5,7,8-tetrahydro-2H-pyrano[4,3-b]pyridin-7-yl)methyl)piperazin-1-yl)picolinamide] |
| ≤ 0.05 µM | 0.0155 µM | > 1 µM | CNC(=O)c1ccc(N2CCN(CC3Cc4[nH]c(=O)c(C)c(C)c4CO3)CC2)c(Cl)n1 (stereo not drawn) [Example 100, 6-Chloro-5-(4-((3,4-dimethyl-2-oxo-1,5,7,8-tetrahydro-2H-pyrano[4,3-b]pyridin-7-yl)methyl)piperazin-1-yl)-N-methylpicolinamide] |

| SMILES | IC50 [1] | IC50 [2] | IC50 [3] |
| --- | --- | --- | --- |
| CNC(=O)c1ccc(C2=CCN(CC3Cc4[nH]c(=O)c(C)cc4CO3)CC2)c(F)n1 (stereo not drawn) [Example 50, 2-Fluoro-N-methyl-1'-((3-methyl-2-oxo-1,5,7,8-tetrahydro-2H-pyrano[4,3-b]pyridin-7-yl)methyl)-1',2',3',6'-tetrahydro-[3,4'-bipyridine]-6-carboxamide] | 0.05 to 0.5 µM | 0.35 µM | > 1 µM |
| CNC(=O)c1ccc(C2=CCN(CC3Cc4[nH]c(=O)c(C(F)F)cc4CO3)CC2)c(F)n1 (stereo not drawn) [Example 52, 1'-((3-(Difluoromethyl)-2-oxo-1,5,7,8-tetrahydro-2H-pyrano[4,3-b]pyridin-7-yl)methyl)-2-flu oro-N-methyl-1',2',3',6'-tetrahydro-[3,4'-bipyridine]-6-carboxamide] | 0.05 to 0.5 µM | 0.2 µM | > 1 µM |
| CNC(=O)c1ccc(C2=CCN(CC3Cc4[nH]c(=O)c(Cl)cc4CO3)CC2)c(F)n1 (stereo not drawn) [Example 63, 1'-((3-Chloro-2-oxo-1,5,7,8-tetrahydro-2H-pyrano[4,3-b]pyridin-7-yl)methyl)-2-fluoro-N-met hyl-1',2',3',6'-tetrahydro-[3,4'-bipyridine]-6-carboxamide] | 0.05 to 0.5 µM | 0.43 µM | > 1 µM |
| C=Cc1cc2c([nH]c1=O)CC(CN1CC=C(c3ccc(C(=O)NC)nc3F)CC1)OC2 (stereo not drawn) [Example 68, 2-Fluoro-N-methyl-1'-((2-oxo-3-vinyl-1,5,7,8-tetrahydro-2H-pyrano[4,3-b]pyridin-7-yl)methyl)-1',2',3',6'-tetrahydro-[3,4'-bipyridine]-6-carboxamide] | ≤ 0.05 µM | 0.006 µM | > 1 µM |
| CNC(=O)c1ccc(C2=CCN(CC3Cc4[nH]c(=O)c(C5CC5)cc4CO3)CC2)c(Cl)n1 (stereo not drawn) [Example 69, 2-Chloro-1'-((3-cyclopropyl-2-oxo-1,5,7,8-tetrahydro-2H-pyrano[4,3-b]pyridin-7-yl)methyl)-N-methyl-1',2',3',6'-tetrahydro-[3,4'-bipyridine]-6-carboxamide] | 0.05 to 0.5 µM | 0.18 µM | > 1 µM |
| CNC(=O)c1ccc(C2=CCN(CC3Cc4[nH]c(=O)c(C)cc4CO3)CC2)c(Cl)n1 (stereo not drawn) [Example 70, 2-Chloro-N-methyl-1'-((3-methyl-2-oxo-1,5,7,8-tetrahydro-2H-pyrano[4,3-b]pyridin-7-yl)methyl)-1',2',3',6'-tetrahydro-[3,4'-bipyridine]-6-carboxamide] | 0.05 to 0.5 µM | 0.3 µM | > 1 µM |
